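How tested: cells in 96-well plates exposed to compound for 48 hours at five concentrations. GI50: concentration for 50% inhibition of growth. TGI denotes the concentration required for complete inhibition of growth.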
tested on: PC-3 prostate; assay: DTP human tumour cell line panel, 48 h

**Q.** For `C[C@]12CCC(O)CC1=CC[C@@H]1[C@@H]2CC[C@]2(C)C(=O)[C@H](n3ccnc3)C[C@@H]12` (stereo partly specified), which TGI is on record?
**A.** Its TGI is greater than 100 µM.

**Q.** With `O=c1[nH]c(Nc2cccc(CC(F)(F)F)c2)nc2nc[nH]c12` as the molecule, how does the TGI read?
**A.** Its TGI is greater than 100 µM.

**Q.** With `COc1ccc(-c2cc(O)c3nc4ccccc4n3c2)cc1` as the molecule, how does the TGI read?
**A.** Its TGI is greater than 100 µM.

**Q.** `O=C1CC(NC(=O)C(F)(F)F)c2c(Br)sc(N3CCNCC3)c21` (stereo unspecified) was tested. Which TGI did it give?
**A.** The TGI was greater than 100 µM.

**Q.** Which TGI does the source give for `COc1cc2nc3n(c(=O)c2cc1OC)-c1ccc([N+](=O)[O-])cc1C3=O` here?
**A.** Its TGI is greater than 100 µM.

**Q.** What does the source list for `CC(=O)OC1CC(OC2C(O)CC(OC3C(O)CC(OC4CCC5(C)C(CCC6C5CC(O)C5(C)C(C7=CC(=O)OC7)CCC65O)C4)OC3C)OC2C)OC(C)C1OC1OC(CO)C(O)C(O)C1O` (stereo unspecified)?
**A.** GI50: 0.0522 µM; TGI: 0.206 µM

**Q.** With `Nc1nc(SCCc2ccccc2)c2[nH]cnc2n1` as the molecule, how does the TGI read?
**A.** The TGI was greater than 100 µM.

**Q.** How did the TGI turn out when `Cc1ccc(-c2n[nH]c(=O)n2N2C(=O)c3ccccc3C2=O)cc1` was run?
**A.** Its TGI is greater than 100 µM.

**Q.** How did the TGI turn out when `COc1cc2c(c(OC)c1OC)C(=O)[C@@H]1[C@H]2N1C(N)=O` was run?
**A.** Its TGI is greater than 100 µM.

**Q.** `COC(=O)C1SC(SC)=NC12c1ccccc1Nc1ccccc12` (stereo unspecified) was tested. Which TGI did it give?
**A.** Its TGI is 87 µM.

**Q.** Which TGI does the source give for `CCOC(=O)C1(C/C=C/CBr)Cc2ccccc2C1=O` (stereo unspecified) here?
**A.** Its TGI is 19.2 µM.

**Q.** With `CN1CCc2cc(N)cc3c2C1Cc1ccc(O)c(O)c1-3` (stereo unspecified) as the molecule, how does the TGI read?
**A.** Its TGI is greater than 100 µM.

**Q.** How did the TGI turn out when `O=C1CCCSC(=O)N1Cc1ccccc1` was run?
**A.** The TGI was greater than 100 µM.

**Q.** With `COC(=O)c1c(C)cccc1C1CN=NC12Cc1ccc(C)cc1C2=O` (stereo unspecified) as the molecule, how does the TGI read?
**A.** Its TGI is greater than 100 µM.

**Q.** `N#Cc1c(-c2ccccc2)/c(=C\Nc2cccc(C(F)(F)F)c2)c(=O)n2c1nc1ccccc12` was tested. Which TGI did it give?
**A.** Its TGI is greater than 100 µM.

**Q.** `S=C1Nc2ccccc2SC1c1ccccc1` (stereo unspecified) was tested. Which TGI did it give?
**A.** Its TGI is greater than 100 µM.

**Q.** `COC(=O)c1ccccc1CC1Cc2ccc3c(c2C1=O)CCCC3` (stereo unspecified) was tested. Which TGI did it give?
**A.** The TGI was greater than 100 µM.

**Q.** Which TGI does the source give for `CN1CCN(C2=NCCO2)CC1` here?
**A.** The TGI was greater than 100 µM.

**Q.** For `c1ccc(N=c2sc3ccccc3nc2Nc2ccccc2)cc1`, which TGI is on record?
**A.** The TGI was greater than 100 µM.

**Q.** For `O=C1/C(=C/c2ccccc2)N=C2Sc3c(nc[nH]c3=O)N12`, which TGI is on record?
**A.** The TGI was greater than 100 µM.

**Q.** `C=CC1(C)CCC2C(=CCC3C2(C)CC(O)C(O)C3(C)COC2OC(C(=O)O)C(O)C(O)C2O)C1` (stereo unspecified) (tested in a mixture with another compound) was tested. Which TGI did it give?
**A.** Its TGI is greater than 100 µM.

**Q.** `N#Cc1c(N2CCCC2)ncn(-c2ccccc2)c1=O` was tested. Which TGI did it give?
**A.** The TGI was greater than 100 µM.

**Q.** `N#CC1(C#N)N[C@@H](c2ccsc2)[C@H]2C(=O)N(c3ccccc3)C(=O)[C@H]21` was tested. Which TGI did it give?
**A.** The TGI was greater than 100 µM.

**Q.** `O=[N+]([O-])c1ccc2c(c1)/C(=N/N=C1c3ccccc3Cc3ccccc31)c1cc([N+](=O)[O-])cc([N+](=O)[O-])c1-2` was tested. Which TGI did it give?
**A.** The TGI was 10.2 µM.

**Q.** Which TGI does the source give for `Cc1ccc([N+](=O)[O-])cc1NC1=NCCO1` here?
**A.** Its TGI is greater than 100 µM.

**Q.** `CC(C)=CCc1c2c(c3occ(-c4ccc(O)cc4)c(=O)c3c1O)CC(C(C)(C)O)O2` (stereo unspecified) was tested. Which TGI did it give?
**A.** The TGI was 26.7 µM.

**Q.** `CCOC(=O)C(SCCO)C(C(=O)OCC)n1cnc2c(=O)[nH]c(NC(C)=O)nc21` (stereo unspecified) was tested. Which TGI did it give?
**A.** Its TGI is greater than 100 µM.

**Q.** `COc1cc(C2c3cc4c(cc3OC(N3CCOCC3)C2C)OCO4)ccc1O` (stereo unspecified) was tested. Which TGI did it give?
**A.** Its TGI is greater than 100 µM.

**Q.** For `Cc1ccccc1C(=O)N1CCc2c([nH]c3ccccc23)C1`, which TGI is on record?
**A.** Its TGI is 33.9 µM.

**Q.** For `CC[C@@H]1CC[C@@H]2[C@H](CC[C@]3(C)[C@@H](OC(C)=O)CC[C@@H]23)[C@H]1COC(C)=O`, which TGI is on record?
**A.** The TGI was greater than 100 µM.

**Q.** `NS(=O)(=O)c1ccc2c(c1)OCCOCCOCCOCCO2` was tested. Which TGI did it give?
**A.** Its TGI is greater than 100 µM.

**Q.** `COC(=O)c1cc(=O)nc2sc3cccc(C)c3n12` was tested. Which TGI did it give?
**A.** The TGI was greater than 100 µM.

tested on: LOX IMVI melanoma; assay: DTP human tumour cell line panel, 48 h

**Q.** With `O=C1CSC(c2ccc(Cl)cc2)N1c1ccc(Oc2ccc(Cl)cc2)c(Cl)c1` (stereo unspecified) as the molecule, how does the TGI read?
**A.** Its TGI is 30.7 µM.

**Q.** How did the TGI turn out when `Cc1ccc(C(=O)O)cc1S(=O)(=O)Nn1cnc2ccc(S(=O)(=O)Nc3ccccc3C(=O)O)cc2c1=O` was run?
**A.** Its TGI is greater than 100 µM.

**Q.** How did the TGI turn out when `CCCCCCc1cc2cc(-c3csc(CC#N)n3)c(=O)oc2cc1O` was run?
**A.** The TGI was greater than 100 µM.

**Q.** Which TGI does the source give for `C=C1C(=O)O[C@@H]2C(=O)[C@@H](C)CCC/C(C)=C/CC[C@@]3(C)O[C@@H]3C[C@@H]12` here?
**A.** Its TGI is 36.9 µM.

**Q.** `COc1cc(Br)cc2cc(-c3cn4ccsc4n3)c(=O)oc12` was tested. Which TGI did it give?
**A.** The TGI was greater than 100 µM.

**Q.** `C[C@]12CCC(O)CC1=CC[C@@H]1[C@@H]2CC[C@]2(C)C(=O)[C@H](n3ccnc3)C[C@@H]12` (stereo partly specified) was tested. Which TGI did it give?
**A.** Its TGI is greater than 100 µM.

**Q.** With `O=c1[nH]c(Nc2cccc(CC(F)(F)F)c2)nc2nc[nH]c12` as the molecule, how does the TGI read?
**A.** The TGI was greater than 100 µM.

**Q.** For `COc1ccc(-c2cc(O)c3nc4ccccc4n3c2)cc1`, which TGI is on record?
**A.** Its TGI is greater than 100 µM.

**Q.** Which TGI does the source give for `O=C1CC(NC(=O)C(F)(F)F)c2c(Br)sc(N3CCNCC3)c21` (stereo unspecified) here?
**A.** The TGI was greater than 100 µM.

**Q.** `COc1cc2nc3n(c(=O)c2cc1OC)-c1ccc([N+](=O)[O-])cc1C3=O` was tested. Which TGI did it give?
**A.** Its TGI is greater than 100 µM.

**Q.** `CC(=O)OC1CC(OC2C(O)CC(OC3C(O)CC(OC4CCC5(C)C(CCC6C5CC(O)C5(C)C(C7=CC(=O)OC7)CCC65O)C4)OC3C)OC2C)OC(C)C1OC1OC(CO)C(O)C(O)C1O` (stereo unspecified) was tested. Which TGI did it give?
**A.** Its TGI is 0.161 µM.

**Q.** For `Nc1nc(SCCc2ccccc2)c2[nH]cnc2n1`, which TGI is on record?
**A.** The TGI was greater than 100 µM.

**Q.** Which TGI does the source give for `Cc1ccc(-c2n[nH]c(=O)n2N2C(=O)c3ccccc3C2=O)cc1` here?
**A.** The TGI was greater than 100 µM.

**Q.** With `COc1cc2c(c(OC)c1OC)C(=O)[C@@H]1[C@H]2N1C(N)=O` as the molecule, how does the TGI read?
**A.** Its TGI is greater than 100 µM.

**Q.** How did the TGI turn out when `COC(=O)C1SC(SC)=NC12c1ccccc1Nc1ccccc12` (stereo unspecified) was run?
**A.** Its TGI is 32.2 µM.

**Q.** `CCOC(=O)C1(C/C=C/CBr)Cc2ccccc2C1=O` (stereo unspecified) was tested. Which TGI did it give?
**A.** The TGI was 3.23 µM.

**Q.** For `CN1CCc2cc(N)cc3c2C1Cc1ccc(O)c(O)c1-3` (stereo unspecified), which TGI is on record?
**A.** The TGI was 35 µM.

**Q.** With `O=C1CCCSC(=O)N1Cc1ccccc1` as the molecule, how does the TGI read?
**A.** Its TGI is greater than 100 µM.

From PubChem BioAssay (NCI)
